Experiments:
Substance-P receptor = Substance-P receptor (Homo sapiens, UniProt P25103); assay type: cell membranes, Membrane; conditions: cho; further: in other assays of this panel Not Active means under 50% inhibition at 10 µM
[1] = DRUGMATRIX: Tumor Necrosis Factor (TNF), Non-Selective radioligand binding (ligand: [125I] TNF-alpha); assay type: cell membranes, Membrane; conditions: u-937; Not Active = under 50% inhibition at 10 µM
[2] = DRUGMATRIX: Glutamate, NMDA, Phencyclidine radioligand binding (ligand: [3H] TCP); assay type: cell membranes, Rattus norvegicus, Wistar, Cerebral cortex, Membrane; conditions: Not Active = under 50% inhibition at 10 µM
[3] = target: T1, Polyunsaturated fatty acid lipoxygenase ALOX15 (Oryctolagus cuniculus, UniProt P12530); assay: biochemical; assay type: tissue-based, Reticulocytes; conditions: reticulocytes;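 further: inhibition of 15-lipoxygenase enzyme activity measured with linoleic acid as the substrate; in other assays of this panel Not Active means under 50% inhibition at 10 µM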
T1 sequence (P12530 whole entry): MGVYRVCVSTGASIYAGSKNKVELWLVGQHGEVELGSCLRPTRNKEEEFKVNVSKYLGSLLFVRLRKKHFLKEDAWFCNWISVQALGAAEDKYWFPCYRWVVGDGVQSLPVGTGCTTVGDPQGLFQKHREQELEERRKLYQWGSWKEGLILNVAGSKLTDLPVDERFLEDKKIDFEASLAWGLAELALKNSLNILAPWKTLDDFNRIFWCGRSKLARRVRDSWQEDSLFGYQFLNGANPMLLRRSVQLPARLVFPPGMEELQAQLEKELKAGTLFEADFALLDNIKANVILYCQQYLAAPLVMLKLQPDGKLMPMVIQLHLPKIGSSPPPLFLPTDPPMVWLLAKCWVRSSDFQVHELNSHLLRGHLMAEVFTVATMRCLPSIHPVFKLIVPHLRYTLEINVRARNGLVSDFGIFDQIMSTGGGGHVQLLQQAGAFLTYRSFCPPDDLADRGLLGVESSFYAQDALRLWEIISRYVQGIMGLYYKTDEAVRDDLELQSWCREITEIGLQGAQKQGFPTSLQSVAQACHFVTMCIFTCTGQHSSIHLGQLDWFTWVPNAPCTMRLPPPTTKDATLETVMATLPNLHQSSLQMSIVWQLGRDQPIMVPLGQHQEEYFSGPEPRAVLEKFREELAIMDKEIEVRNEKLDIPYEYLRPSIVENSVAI

[4] = target: Mitogen-activated protein kinase 14 (Homo sapiens, UniProt Q16539); parameters: species or system Escherichia coli;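 further: inhibition of p38alpha enzyme activity in a biochemical kinase assay, with myelin basic protein serving as substrate; in other assays of this panel Not Active means under 50% inhibition at 10 µM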
Mitogen-activated protein kinase 14, sequence (Q16539 whole entry): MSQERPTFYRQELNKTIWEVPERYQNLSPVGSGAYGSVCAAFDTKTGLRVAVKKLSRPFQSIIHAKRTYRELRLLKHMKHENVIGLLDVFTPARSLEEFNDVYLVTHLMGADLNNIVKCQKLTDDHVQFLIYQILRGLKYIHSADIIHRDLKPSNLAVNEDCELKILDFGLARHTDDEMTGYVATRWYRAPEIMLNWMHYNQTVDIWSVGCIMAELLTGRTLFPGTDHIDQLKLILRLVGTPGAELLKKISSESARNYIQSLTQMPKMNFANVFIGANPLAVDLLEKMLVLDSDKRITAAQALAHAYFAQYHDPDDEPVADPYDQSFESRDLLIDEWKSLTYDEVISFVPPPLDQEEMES

[5] = target: 5-hydroxytryptamine receptor 1B (Rattus norvegicus, UniProt P28564); assay type: cell membranes, Wistar, Cerebral cortex, Membrane; further: in other assays of this panel Not Active means under 50% inhibition at 10 µM
5-hydroxytryptamine receptor 1B, sequence (P28564 whole entry): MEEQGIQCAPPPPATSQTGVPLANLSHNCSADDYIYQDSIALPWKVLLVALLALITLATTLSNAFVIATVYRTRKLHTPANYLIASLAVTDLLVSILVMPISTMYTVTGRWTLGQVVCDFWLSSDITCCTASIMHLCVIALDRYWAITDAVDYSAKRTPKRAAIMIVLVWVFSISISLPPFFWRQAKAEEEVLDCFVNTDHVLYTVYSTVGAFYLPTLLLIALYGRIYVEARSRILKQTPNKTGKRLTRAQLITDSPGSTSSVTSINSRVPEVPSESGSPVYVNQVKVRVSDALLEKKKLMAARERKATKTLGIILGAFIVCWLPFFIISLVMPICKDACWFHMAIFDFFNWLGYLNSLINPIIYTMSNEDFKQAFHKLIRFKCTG

Cytochrome P450 2D6 = Cytochrome P450 2D6 (Homo sapiens, UniProt P10635); conditions: bti-tn-5b1-4; further: in other assays of this panel Not Active means under 50% inhibition at 10 µM
Cytochrome P450 2D6, sequence (P10635 whole entry): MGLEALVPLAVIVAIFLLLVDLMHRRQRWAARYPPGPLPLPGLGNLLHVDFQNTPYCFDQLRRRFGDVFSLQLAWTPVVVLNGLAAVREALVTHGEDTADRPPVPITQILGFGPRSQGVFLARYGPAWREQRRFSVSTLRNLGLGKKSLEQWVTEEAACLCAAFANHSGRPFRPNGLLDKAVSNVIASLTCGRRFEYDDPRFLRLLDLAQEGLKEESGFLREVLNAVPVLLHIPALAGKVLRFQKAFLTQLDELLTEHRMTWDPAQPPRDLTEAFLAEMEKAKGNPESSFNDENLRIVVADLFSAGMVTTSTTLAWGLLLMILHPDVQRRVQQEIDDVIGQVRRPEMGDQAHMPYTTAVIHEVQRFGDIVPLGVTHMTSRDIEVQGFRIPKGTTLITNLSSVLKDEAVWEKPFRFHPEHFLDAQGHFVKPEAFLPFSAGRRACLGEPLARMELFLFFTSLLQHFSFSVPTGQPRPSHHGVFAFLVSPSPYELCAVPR

Substance-P receptor, sequence (P25103 whole entry): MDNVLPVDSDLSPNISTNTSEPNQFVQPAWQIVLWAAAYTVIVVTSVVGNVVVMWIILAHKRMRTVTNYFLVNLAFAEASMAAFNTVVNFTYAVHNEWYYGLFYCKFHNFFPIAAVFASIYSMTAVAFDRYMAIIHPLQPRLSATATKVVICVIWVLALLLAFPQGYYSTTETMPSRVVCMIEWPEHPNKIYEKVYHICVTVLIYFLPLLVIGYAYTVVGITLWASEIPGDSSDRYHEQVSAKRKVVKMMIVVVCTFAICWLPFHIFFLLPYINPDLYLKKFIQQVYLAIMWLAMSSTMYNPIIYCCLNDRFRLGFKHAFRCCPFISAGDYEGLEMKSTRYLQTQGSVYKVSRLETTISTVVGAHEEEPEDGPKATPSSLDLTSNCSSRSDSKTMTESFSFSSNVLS

OCCO [ETHYLENE GLYCOL]
Not Active: IC50 (Substance-P receptor) | IC50 [1] | Ki [1] | IC50 [2] | Ki [2] | IC50 [3] | IC50 [4] | IC50 [5] | IC50 (Cytochrome P450 2D6) | Ki (Cytochrome P450 2D6)

CC(=O)OCC(CCn1cnc2cnc(N)nc21)COC(C)=O [FAMCICLOVIR]
Not Active: IC50 (Substance-P receptor) | IC50 [1] | Ki [1] | IC50 [2] | Ki [2] | IC50 [3] | IC50 [4] | IC50 [5] | IC50 (Cytochrome P450 2D6) | Ki (Cytochrome P450 2D6)

O=C(O)Cc1ccc(-c2ccccc2)cc1 [FELBINAC]
Not Active: IC50 (Substance-P receptor) | IC50 [1] | Ki [1] | IC50 [2] | Ki [2] | IC50 [3] | IC50 [4] | IC50 [5] | IC50 (Cytochrome P450 2D6) | Ki (Cytochrome P450 2D6)

CC(C(=O)O)c1ccc(-c2ccccc2)c(F)c1 (stereo not given) [FLURBIPROFEN]
Not Active: IC50 (Substance-P receptor) | IC50 [1] | Ki [1] | IC50 [2] | Ki [2] | IC50 [3] | IC50 [4] | IC50 [5] | IC50 (Cytochrome P450 2D6) | Ki (Cytochrome P450 2D6)

NC[C@@H]1O[C@H](O[C@H]2[C@@H](O)[C@H](O[C@@H]3[C@@H](O)[C@H](N)C[C@H](N)[C@H]3O[C@H]3O[C@H](CN)[C@@H](O)[C@H](O)[C@H]3N)O[C@@H]2CO)[C@H](N)[C@@H](O)[C@@H]1O [FRAMYCETIN]
Not Active: IC50 (Substance-P receptor) | IC50 [1] | Ki [1] | IC50 [2] | Ki [2] | IC50 [3] | IC50 [4] | IC50 [5] | IC50 (Cytochrome P450 2D6) | Ki (Cytochrome P450 2D6)

C[C@H]([C@](O)(Cn1cncn1)c1ccc(F)cc1F)S(C)(=O)=O [GENACONAZOLE]
Not Active: IC50 (Substance-P receptor) | IC50 [1] | Ki [1] | IC50 [2] | Ki [2] | IC50 [3] | IC50 [4] | IC50 [5] | IC50 (Cytochrome P450 2D6) | Ki (Cytochrome P450 2D6)

Cc1c(F)c(N2CCNC(C)C2)cc2c1c(=O)c(C(=O)O)cn2C1CC1 (stereo not given) [GREPAFLOXACIN]
Not Active: IC50 (Substance-P receptor) | IC50 [1] | Ki [1] | IC50 [2] | Ki [2] | IC50 [3] | IC50 [4] | IC50 [5] | IC50 (Cytochrome P450 2D6) | Ki (Cytochrome P450 2D6)

N=C(N)N/N=C/c1c(Cl)cccc1Cl [GUANABENZ]
Not Active: IC50 (Substance-P receptor) | IC50 [1] | Ki [1] | IC50 [2] | Ki [2] | IC50 [3] | IC50 [4] | IC50 [5] | IC50 (Cytochrome P450 2D6) | Ki (Cytochrome P450 2D6)

C[C@]12CCC(=O)C=C1CC[C@@H]1[C@@H]2[C@@H](O)C[C@@]2(C)[C@H]1CC[C@]2(O)C(=O)CO [HYDROCORTISONE]
Not Active: IC50 (Substance-P receptor) | IC50 [1] | Ki [1] | IC50 [2] | Ki [2] | IC50 [3] | IC50 [4] | IC50 [5] | IC50 (Cytochrome P450 2D6) | Ki (Cytochrome P450 2D6)

NC[C@H]1O[C@H](O[C@H]2[C@H](O)[C@@H](O[C@H]3O[C@H](CO)[C@@H](O)[C@H](N)[C@H]3O)[C@H](N)C[C@@H]2N)[C@H](O)[C@@H](O)[C@@H]1O [KANAMYCIN]
Not Active: IC50 (Substance-P receptor) | IC50 [1] | Ki [1] | IC50 [2] | Ki [2] | IC50 [3] | IC50 [4] | IC50 [5] | IC50 (Cytochrome P450 2D6) | Ki (Cytochrome P450 2D6)

CC[C@H](C)C(=O)O[C@H]1C[C@@H](C)C=C2C=C[C@H](C)[C@H](CC[C@@H]3C[C@@H](O)CC(=O)O3)[C@H]21 [LOVASTATIN]
Not Active: IC50 (Substance-P receptor) | IC50 [1] | Ki [1] | IC50 [2] | Ki [2] | IC50 [3] | IC50 [4] | IC50 [5] | IC50 (Cytochrome P450 2D6) | Ki (Cytochrome P450 2D6)

CC(C(=O)O)c1ccc(CC2CCCC2=O)cc1 (stereo not given) [LOXOPROFEN]
Not Active: IC50 (Substance-P receptor) | IC50 [1] | Ki [1] | IC50 [2] | Ki [2] | IC50 [3] | IC50 [4] | IC50 [5] | IC50 (Cytochrome P450 2D6) | Ki (Cytochrome P450 2D6)

Cc1cccc(Nc2ccccc2C(=O)O)c1C [MEFENAMIC ACID]
Not Active: IC50 (Substance-P receptor) | IC50 [1] | Ki [1] | IC50 [2] | Ki [2] | IC50 [3] | IC50 [4] | IC50 [5] | IC50 (Cytochrome P450 2D6) | Ki (Cytochrome P450 2D6)

CC(=O)O[C@]1(C(C)=O)CC[C@H]2[C@@H]3C=C(C)C4=CC(=O)CC[C@]4(C)[C@H]3CC[C@@]21C [MEGESTROL ACETATE]
Not Active: IC50 (Substance-P receptor) | IC50 [1] | Ki [1] | IC50 [2] | Ki [2] | IC50 [3] | IC50 [4] | IC50 [5] | IC50 (Cytochrome P450 2D6) | Ki (Cytochrome P450 2D6)

COc1ccccc1OCC(O)COC(N)=O (stereo not given) [METHOCARBAMOL]
Not Active: IC50 (Substance-P receptor) | IC50 [1] | Ki [1] | IC50 [2] | Ki [2] | IC50 [3] | IC50 [4] | IC50 [5] | IC50 (Cytochrome P450 2D6) | Ki (Cytochrome P450 2D6)

CN(Cc1cnc2nc(N)nc(N)c2n1)c1ccc(C(=O)N[C@@H](CCC(=O)O)C(=O)O)cc1 [METHOTREXATE]
Not Active: IC50 (Substance-P receptor) | IC50 [1] | Ki [1] | IC50 [2] | Ki [2] | IC50 [3] | IC50 [4] | IC50 [5] | IC50 (Cytochrome P450 2D6) | Ki (Cytochrome P450 2D6)

COC(=O)c1ccccc1O [METHYL SALICYLATE]
Not Active: IC50 (Substance-P receptor) | IC50 [1] | Ki [1] | IC50 [2] | Ki [2] | IC50 [3] | IC50 [4] | IC50 [5] | IC50 (Cytochrome P450 2D6) | Ki (Cytochrome P450 2D6)

COc1ccc2cc(CCC(C)=O)ccc2c1 [NABUMETONE]
Not Active: IC50 (Substance-P receptor) | IC50 [1] | Ki [1] | IC50 [2] | Ki [2] | IC50 [3] | IC50 [4] | IC50 [5] | IC50 (Cytochrome P450 2D6) | Ki (Cytochrome P450 2D6)

O=C(O)c1cccnc1 [NIACIN]
Not Active: IC50 (Substance-P receptor) | IC50 [1] | Ki [1] | IC50 [2] | Ki [2] | IC50 [3] | IC50 [4] | IC50 [5] | IC50 (Cytochrome P450 2D6) | Ki (Cytochrome P450 2D6)

CNC(=C[N+](=O)[O-])NCCSCc1csc(CN(C)C)n1 [NIZATIDINE]
Not Active: IC50 (Substance-P receptor) | IC50 [1] | Ki [1] | IC50 [2] | Ki [2] | IC50 [3] | IC50 [4] | IC50 [5] | IC50 (Cytochrome P450 2D6) | Ki (Cytochrome P450 2D6)

C[C@]12C/C(=C/O)C(=O)C[C@@H]1CC[C@@H]1[C@@H]2CC[C@@]2(C)[C@H]1CC[C@]2(C)O [OXYMETHOLONE]
Not Active: IC50 (Substance-P receptor) | IC50 [1] | Ki [1] | IC50 [2] | Ki [2] | IC50 [3] | IC50 [4] | IC50 [5] | IC50 (Cytochrome P450 2D6) | Ki (Cytochrome P450 2D6)

CC(C)(CO)C(O)C(=O)NCCCO (stereo not given) [PANTHENOL]
Not Active: IC50 (Substance-P receptor) | IC50 [1] | Ki [1] | IC50 [2] | Ki [2] | IC50 [3] | IC50 [4] | IC50 [5] | IC50 (Cytochrome P450 2D6) | Ki (Cytochrome P450 2D6)

COc1ccc(Cc2nccc3cc(OC)c(OC)cc23)cc1OC [PAPAVERINE]
Not Active: IC50 (Substance-P receptor) | IC50 [1] | Ki [1] | IC50 [2] | Ki [2] | IC50 [3] | IC50 [4] | IC50 [5] | IC50 (Cytochrome P450 2D6) | Ki (Cytochrome P450 2D6)

CCCCC1C(=O)N(c2ccccc2)N(c2ccccc2)C1=O [PHENYLBUTAZONE]
Not Active: IC50 (Substance-P receptor) | IC50 [1] | Ki [1] | IC50 [2] | Ki [2] | IC50 [3] | IC50 [4] | IC50 [5] | IC50 (Cytochrome P450 2D6) | Ki (Cytochrome P450 2D6)

Cc1cccc(Nc2cc(Cl)nc(SCC(=O)O)n2)c1C [PIRINIXIC ACID]
Not Active: IC50 (Substance-P receptor) | IC50 [1] | Ki [1] | IC50 [2] | Ki [2] | IC50 [3] | IC50 [4] | IC50 [5] | IC50 (Cytochrome P450 2D6) | Ki (Cytochrome P450 2D6)

From ChEMBL document CHEMBL1909046, “DrugMatrix in vitro pharmacology data”
